From patent US4081441A, “Antibacterial agents” (priority 1977, dated 1978)
In brackets after ≈: the same amount, converted by molar mass. Where two headings read alike, the source gives them in different places.

Assays:
Pseudomonas aeruginosa [1] = assay: Minimum Inhibitory Concentration, agar dilution, overnight incubation at 37° C.; format: cell-based; details: for MIC: Pseudomonas aeruginosa
Description: A carbenicillin sample was also run for comparative purposes.

Pseudomonas aeruginosa [2] = assay: Minimum Bactericidal Concentration, inoculum 10^4 cells/ml., at least 99% kill; format: cell-based
Method: The bactericidal in vitro activity of sodium D(-)-6-(α-(1,2,4-triazine-3,5-dione-6-carboxamido)-4-hydroxyphenylacetamido)penicillanate (BL-P1908) against several strains of Pseudomonas aeruginosa was determined under two sets of conditions. In one test the Minimum Bactericidal Concentrations (M.B.C.) were determined using an inoculum size of 10^4 cells/ml. and the M.B.C. was defined as the lowest concentration of antibiotic in mcg./ml. needed to kill at least 99% of the viable Pseudomonas cells.

Pseudomonas aeruginosa [3] = assay: Minimum Bactericidal Concentration, inoculum 10^5 cells/ml., at least 99.9% kill; format: cell-based
Description: The effect of increased inoculum size on the bactericidal activity of BL-P1908 was investigated by a second test in which an inoculum size of 10^5 cells/ml. was used and the M.B.C. was defined as the lowest concentration of antibiotics in mcg./ml. needed to kill at least 99.9% of viable Pseudomonas cells.

[4] = Mouse blood (plasma) antibiotic levels after single intramuscular dose; format: in vivo; details: im, 40 mg/kg, mice, 40 mg./kg. i.m., Test 1 (Ave. of 6 mice tested), read-out: Blood Level
Method: Plasma antibiotic levels from mice administered a single intramuscular dose of 40 mg./kg. of BL-[…] or carbenicillin are shown in the following table.

Bacteroides fragilis = assay: M.I.C. against anaerobic bacteria, Bacteroides fragilis; format: cell-based
Cl. acidiurici = assay: M.I.C. against anaerobic bacteria, Cl. acidiurici; format: cell-based; details: strain A9560
Cl. cylindrosporum = assay: M.I.C. against anaerobic bacteria, Cl. cylindrosporum; format: cell-based; details: strain A9562
Cl. difficile = assay: M.I.C. against anaerobic bacteria, Cl. difficile; format: cell-based; details: Clostridioides difficile
Cl. septicum = assay: M.I.C. against anaerobic bacteria, Cl. septicum; format: cell-based; details: Clostridium septicum; strain A21869
Cl. perfringens = assay: microbe, parasite or virus in culture; format: cell-based; details: Clostridium perfringens
Cl. ramosum = assay: M.I.C. against anaerobic bacteria, Cl. ramosum; format: cell-based; details: Thomasclavelia ramosa
Pseudomonas aeruginosa [5] = assay: animal or person; details: in Mus musculus, im

Compound CC1(C)S[C@@H]2[C@H](NC(=O)C(C(=O)O)c3ccccc3)C(=O)N2[C@H]1C(=O)O (stereo partly shown) [Carbenicillin, reference compound] has a M.I.C. (Pseudomonas aeruginosa [1]) of 32 µg/mL, an MIC (Pseudomonas aeruginosa [1]; strain A9502) of 63 µg/mL (≈ 166 µM) and an MIC (Pseudomonas aeruginosa [1]; strain A9827) of 32 µg/mL (≈ 84.6 µM). For the same compound, the MIC (Pseudomonas aeruginosa [1]; strain A9910) was 32 µg/mL (≈ 84.6 µM), the MIC (Pseudomonas aeruginosa [1]; strain A9923) was 63 µg/mL (≈ 166 µM) and the MIC (Pseudomonas aeruginosa [1]; strain A9924) was 63 µg/mL (≈ 166 µM). The MIC (Pseudomonas aeruginosa [1]; strain A9925) was 32 µg/mL (≈ 84.6 µM), the MIC (Pseudomonas aeruginosa [1]; strain A9926) was 63 µg/mL (≈ 166 µM) and the MIC (Pseudomonas aeruginosa [1]; strain A9930) was 63 µg/mL (≈ 166 µM). It also gave an MIC (Pseudomonas aeruginosa [1]; strain A9931) of 63 µg/mL (≈ 166 µM), an MIC (Pseudomonas aeruginosa [1]; strain A15150) of 32 µg/mL (≈ 84.6 µM) and an MIC (Pseudomonas aeruginosa [1]; strain A15151) of 32 µg/mL (≈ 84.6 µM). The MIC (Pseudomonas aeruginosa [1]; strain A15194) was greater than 125 µg/mL, the MIC (Pseudomonas aeruginosa [1]; strain A15195) was 63 µg/mL (≈ 166 µM) and the MIC (Pseudomonas aeruginosa [1]; strain A15196) was 63 µg/mL (≈ 166 µM). It also gave an MIC (Pseudomonas aeruginosa [1]; strain A20125) of 63 µg/mL (≈ 166 µM), an MIC (Pseudomonas aeruginosa [1]; strain A20126) of 16 µg/mL (≈ 42.3 µM) and an MIC (Pseudomonas aeruginosa [1]; strain A20127) of 63 µg/mL (≈ 166 µM). It also gave an MIC (Pseudomonas aeruginosa [1]; strain A20128) of 63 µg/mL (≈ 166 µM), an MIC (Pseudomonas aeruginosa [1]; strain A20129) of 63 µg/mL (≈ 166 µM) and an MIC (Pseudomonas aeruginosa [1]; strain A20130) of 63 µg/mL (≈ 166 µM). The MIC (Pseudomonas aeruginosa [1]; strain A20228) was 63 µg/mL (≈ 166 µM), the MIC (Pseudomonas aeruginosa [1]; strain A20546) was 63 µg/mL (≈ 166 µM) and the MIC (Pseudomonas aeruginosa [1]; strain A20557) was greater than 125 µg/mL. It also gave an MIC (Pseudomonas aeruginosa [1]; strain A20574) of 32 µg/mL (≈ 84.6 µM), an MIC (Pseudomonas aeruginosa [1]; strain A20602) of 63 µg/mL (≈ 166 µM) and an MIC (Pseudomonas aeruginosa [1]; strain A20616) of 63 µg/mL (≈ 166 µM). For the same compound, the MIC (Pseudomonas aeruginosa [1]; strain A20641) was 63 µg/mL (≈ 166 µM), the MIC (Pseudomonas aeruginosa [1]; strain A20717) was greater than 125 µg/mL and the MIC (Pseudomonas aeruginosa [1]; strain A20726) was 63 µg/mL (≈ 166 µM). It also gave an MIC (Pseudomonas aeruginosa [1]; strain A21336) of 63 µg/mL (≈ 166 µM), an MBC (Pseudomonas aeruginosa [2]; strain 9843A) of 63 µg/mL (≈ 166 µM) and an MBC (Pseudomonas aeruginosa [2]; strain 9910) of 32 µg/mL (≈ 84.6 µM). It also gave an MBC (Pseudomonas aeruginosa [2]; strain 9926) of 63 µg/mL (≈ 166 µM), an MBC (Pseudomonas aeruginosa [2]; strain 20126) of 63 µg/mL (≈ 166 µM) and an MBC (Pseudomonas aeruginosa [2]; strain 20128) of 63 µg/mL (≈ 166 µM). The MBC (Pseudomonas aeruginosa [2]; strain 20227) was 63 µg/mL (≈ 166 µM), the MBC (Pseudomonas aeruginosa [2]; strain 20228) was 63 µg/mL (≈ 166 µM) and the MBC (Pseudomonas aeruginosa [2]; strain 20546) was 63 µg/mL (≈ 166 µM). The MBC (Pseudomonas aeruginosa [2]; strain 20557) was 250 µg/mL (≈ 661 µM), the MBC (Pseudomonas aeruginosa [2]; strain 20574) was 63 µg/mL (≈ 166 µM) and the MBC (Pseudomonas aeruginosa [2]; strain 20616) was 125 µg/mL (≈ 330 µM). The MBC (Pseudomonas aeruginosa [2]; strain 20641) was 125 µg/mL (≈ 330 µM), the MBC (Pseudomonas aeruginosa [2]; strain 20717) was 250 µg/mL (≈ 661 µM) and the MBC (Pseudomonas aeruginosa [2]; strain 20726) was 125 µg/mL (≈ 330 µM). The MBC (Pseudomonas aeruginosa [2]; strain 21336) was 63 µg/mL (≈ 166 µM), the MBC (Pseudomonas aeruginosa [3]; strain 9843A) was 125 µg/mL (≈ 330 µM) and the MBC (Pseudomonas aeruginosa [3]; strain 9910) was 125 µg/mL (≈ 330 µM). The MBC (Pseudomonas aeruginosa [3]; strain 9926) was 125 µg/mL (≈ 330 µM), the MBC (Pseudomonas aeruginosa [3]; strain 20126) was 63 µg/mL (≈ 166 µM) and the MBC (Pseudomonas aeruginosa [3]; strain 20128) was 125 µg/mL (≈ 330 µM). The MBC (Pseudomonas aeruginosa [3]; strain 20227) was 125 µg/mL (≈ 330 µM), the MBC (Pseudomonas aeruginosa [3]; strain 20228) was 63 µg/mL (≈ 166 µM) and the MBC (Pseudomonas aeruginosa [3]; strain 20546) was 250 µg/mL (≈ 661 µM). It also gave an MBC (Pseudomonas aeruginosa [3]; strain 20557) of 250 µg/mL (≈ 661 µM), an MBC (Pseudomonas aeruginosa [3]; strain 20574) of 125 µg/mL (≈ 330 µM) and an MBC (Pseudomonas aeruginosa [3]; strain 20602) of 250 µg/mL (≈ 661 µM). The MBC (Pseudomonas aeruginosa [3]; strain 20616) was 250 µg/mL (≈ 661 µM), the MBC (Pseudomonas aeruginosa [3]; strain 20641) was 125 µg/mL (≈ 330 µM) and the MBC (Pseudomonas aeruginosa [3]; strain 20717) was 1000 µg/mL (≈ 2640 µM). It also gave an MBC (Pseudomonas aeruginosa [3]; strain 20726) of 250 µg/mL (≈ 661 µM), an MBC (Pseudomonas aeruginosa [3]; strain 21336) of 125 µg/mL (≈ 330 µM) and a concentration at 0.25 h ([4]; 15 min.) of 19100 ng/mL. It also gave a concentration at 0.5 h ([4]; 30 min.) of 12500 ng/mL, a concentration at 1 h ([4]; 60 min.) of 4000 ng/mL and a concentration at 1.5 h ([4]; 90 min.) of less than 1400 ng/mL. For the same compound, the MIC (Bacteroides fragilis; strain A20920) was 2 µg/mL (≈ 5.29 µM), the MIC (Bacteroides fragilis; strain A20926) was 16 µg/mL (≈ 42.3 µM) and the MIC (Bacteroides fragilis; strain A20927-1) was 2 µg/mL (≈ 5.29 µM). For the same compound, the MIC (Bacteroides fragilis; strain A20930) was 63 µg/mL (≈ 166 µM), the MIC (Bacteroides fragilis; strain A20933) was 32 µg/mL (≈ 84.6 µM) and the MIC (Bacteroides fragilis; strain A20934) was 32 µg/mL (≈ 84.6 µM). It also gave an MIC (Bacteroides fragilis; strain A20935) of 32 µg/mL (≈ 84.6 µM), an MIC (Bacteroides fragilis; strain A21870) of 4 µg/mL (≈ 10.6 µM) and an MIC (Bacteroides fragilis; strain A21871) of 32 µg/mL (≈ 84.6 µM). For the same compound, the MIC (Bacteroides fragilis; strain A21872) was 63 µg/mL (≈ 166 µM), the MIC (Bacteroides fragilis; strain A21875) was 16 µg/mL (≈ 42.3 µM) and the MIC (Bacteroides fragilis; strain A22053) was 63 µg/mL (≈ 166 µM). The MIC (Bacteroides fragilis; strain A27020) was greater than 125 µg/mL, the MIC (Cl. acidiurici) was 0.5 µg/mL (≈ 1.32 µM) and the MIC (Cl. cylindrosporum) was 0.5 µg/mL (≈ 1.32 µM). The MIC (Cl. difficile; strain A21675) was 32 µg/mL (≈ 84.6 µM), the MIC (Cl. difficile; strain A21972) was 32 µg/mL (≈ 84.6 µM) and the MIC (Cl. septicum) was 1 µg/mL (≈ 2.64 µM). The MIC (Cl. perfringens; strain A21873) was 0.5 µg/mL (≈ 1.32 µM), the MIC (Cl. perfringens; strain A21874) was 0.5 µg/mL (≈ 1.32 µM) and the MIC (Cl. perfringens; strain A21907) was 4 µg/mL (≈ 10.6 µM). It also gave an MIC (Cl. ramosum; strain A21883) of 32 µg/mL (≈ 84.6 µM), an MIC (Cl. ramosum; strain A21970) of 32 µg/mL (≈ 84.6 µM) and an ED50 (Pseudomonas aeruginosa [5]; read-out: PD50 /treatment, P. aeruginosa A9843A, challenge 1 × 10^4, i.m., typical figures based on several tests) of 100 mg/kg. For the same compound, the ED50 (Pseudomonas aeruginosa [5]; read-out: PD50 /treatment, P. aeruginosa A9843A, challenge 2 × 10^4, i.m., typical figures based on several tests) was 100 mg/kg, the ED50 (Pseudomonas aeruginosa [5]; read-out: PD50 /treatment, P. aeruginosa A9843A, challenge 3 × 10^4, i.m., at 0 and 2 hours) was 130 mg/kg and the ED50 (Pseudomonas aeruginosa [5]; read-out: PD50 /treatment, P. aeruginosa A20599, challenge 3 × 10^4, i.m., at 0 and 2 hours) was 100 mg/kg. The ED50 (Pseudomonas aeruginosa [5]; read-out: PD50 /treatment, P. aeruginosa A20599, challenge 6 × 10^4, i.m., at 0 and 2 hours) was 130 mg/kg.
